“Also recorded” adds a separate entry of the source.
Columns and labels:
sorted HSC, MPP or GMP = assay: Colony forming assay (CFC) in methylcellulose; type: cell-based, human; settings: for cloning efficiency of the HSC / relative number of colonies relative to vehicle control: 35 nM UM171 or 0.5 uM SR1, 10 days
Method: (A) Dose response of varying [4HPR] in CB at day 3 post-treatment showing 2 uM 4HPR gives the relative half maximal number of viable cells compared to control. All experiments following are at this 4HPR concentration unless otherwise indicated. […] (C) LC/MS was used to profile the ceramide (Cer), dihydroceramide (dhCer), sphingosine (sph), dihydrosphingosine (dhSph), S1P and dihydro-S1P (dhS1P) levels in lin− CB cells cultured for 8 days with control or 4HPR (n=2). […] (D) HSC, MPP, or GMP were sorted into methylcellulose for CFC assays in the presence of control or 4HPR and colonies were blindly scored following 10-11 days for (D) colonies/100 cells and ((E) colony distribution are shown (n=7). (F) Flow cytometry for erythroid (GlyA+) and monocytic (CD14+) markers in live cells from pooled CFC colonies were scored (n=6). (F) Relative number of colonies from CFC assays comparing the effect of 4HPR or ATRA (n=3) on sorted HSC, MPP or GMP. […]
(A) Representative flow cytometry analysis of the primitive hierarchy within the CD34+ fraction of day 8 cultured lin− CB cells after the indicated treatments for CD90 and CD45RA, n=4. B) The distribution of cultured CD34+CD90+CD45RA− (cHSC), CD34+CD90−CD45RA− (cMPP), and […] for the indicated conditions at day 8 of ex vivo culture following CD34 enrichment. Statistical significance assayed through unpaired t-test relative to vehicle control (Ctrl). The relative number of colonies resulting from (C) HSC or (D) MPP grown in methylcellulose CFC assays in the presence of vehicle control (−) or the indicated combination of 2 uM 4HPR, or 35 nM UM171 or 0.5 uM SR1 at 10 days. Statistical significance is calculated via unpaired t-test relative to ctrl (black) or to the presence of absence of 4HPR treatment for UM171 or SR1.
However, the functional consequence of 4HPR treatment on human cord blood primitive cells is unknown. A dose titration of 4HPR was performed on lineage-depleted CB (lin-CB) cells and 2 uM was calculated to give half maximal cell viability at 3 days post-treatment compared to vehicle control (ctrl), a concentration reported in cell lines to antagonize DEGS1 enzymatic function, and used for all subsequent experiments unless otherwise indicated (FIG. 1A). […] Next, we utilized the colony forming assay (CFC) for in vitro progenitor function to determine if 4HPR treatment alters functional output from isolated populations of CB HSPC. […] This is unsurprising as retinoic acid signaling is a potent differentiation signal in hematopoietic cells. Thus, 4HPR inhibition of sphingolipid homeostasis selectively enhances cloning efficiency in human HSC.
Given the CD34 compartment where functional HSC should reside following ex vivo expansion is critical to blood production, we asked if there were immunophenotypic alterations following 4HPR treatment. StemRegenin-1 (SR1) or UM171 are two molecules whose action on CB has been reported to expand CD34+ cells dramatically and lead to increase reconstitution in xenotransplantation (Fares, et al Science, 2014: Boitano, Science, 2010). We sought to ask if limiting CD34+ expansion with 4HPR treatment is synergistic with these known agonists of CB ex vivo expansion. Lin− CB were cultured with these 3 small molecules alone or in combination for 8 days and the CD34 compartment was isolated and analyzed by flow cytometry further with CD90 and CD45RA to look at immunophenotypic cultured HSC (cHSC), MPP (cMPP) and committed progenitors (cProg). These populations were sorted from lin-CB at […] following expansion and transplanted into NSG mice for 16 weeks to ascertain that cProg cells are committed progenitors, while cHSC and cMPP retain multipotency following culture (FIG. 8A, B). […]

sorted HSC and MPP = assay: 8 day ex vivo expansion of sorted HSC and MPP, CD34+ compartment by flow cytometry; type: cell-based, human; settings: D8 after ex vivo expansion
Source text: B) Lymphoid and C) myeloid engraftment from (A) at 16 weeks post-transplantion. […] F) Flow cytometry plots showing the CD34+ population from 8 day cultured HSC.
Given the CD34 compartment where functional HSC should reside following ex vivo expansion is critical to blood production, we asked if there were immunophenotypic alterations following 4HPR treatment. StemRegenin-1 (SR1) or UM171 are two molecules whose action on CB has been reported to expand CD34+ cells dramatically and lead to increase reconstitution in xenotransplantation (Fares, et al Science, 2014: Boitano, Science, 2010). We sought to ask if limiting CD34+ expansion with 4HPR treatment is synergistic with these known agonists of CB ex vivo expansion. Lin− CB were cultured with these 3 small molecules alone or in combination for 8 days and the CD34 compartment was isolated and analyzed by flow cytometry further with CD90 and CD45RA to look at immunophenotypic cultured HSC (cHSC), MPP (cMPP) and committed progenitors (cProg). […] To further elucidate the specific action of 4HPR on HSC over MPP and compare this to UM171 and SR1, sorted HSC and MPP were put into ex vivo expansion conditions for 8 days with the same treatments as in FIG. 7A, B and their growth and CD34+ compartment were monitored by flow cytometry (FIG. 8D-F). […]

Structure (SMILES) | cloning efficiency of the HSC (sorted HSC, MPP or GMP) | relative number of colonies relative to vehicle control (sorted HSC, MPP or GMP) | primitive CD34+ cells from sorted HSC and MPP (sorted HSC and MPP) | colony output (sorted HSC, MPP or GMP; ATRA treatment, HSC, MPP, GMP)
CC(C)n1cnc2c(NCCc3ccc(O)cc3)nc(-c3csc4ccccc34)nc21 [SR1, StemRegenin-1] | both decreased cloning efficiency of the HSC | Neither UM171 nor SR1 altered relative number of colonies | promote CD34+ expansion more from MPP than HSC; also recorded: occurs primarily in sorted MPP, not HSC | –
Cn1nnc(-c2ccc3c(c2)[nH]c2nc(Cc4ccccc4)nc(N[C@H]4CC[C@H](N)CC4)c23)n1 [UM171, (1r,4r)-N1-(2-benzyl-7-(2-methyl-2H-tetrazol-5-yl)-9H-pyrimido[4,5-b]indol-4-yl)cyclohexane-1,4-diamine] | both decreased cloning efficiency of the HSC | Neither UM171 nor SR1 altered relative number of colonies | promote CD34+ expansion more from MPP than HSC; also recorded: dramatically increases primitive CD34+ from both HSC and MPP | –
CC1=C(/C=C/C(C)=C/C=C/C(C)=C/C(=O)O)C(C)(C)CCC1 [ATRA, all-trans retinoic acid] | – | – | – | decreases colony output from all HSPC populations
